# Results published in ChEMBL document CHEMBL3526131, “Involvement of organic anion-transporting polypeptides in the hepatic uptake of dioscin in rats and humans” (Drug Metab Dispos, 2013).
# Key:
# OATP1B1/MRP2 = assay: Efflux ratio of permeability from basolateral to apical side to apical to basolateral side in MDCK2 cells expressing OATP1B1/MRP2 (unknown origin) at 1 uM after 30 to 180 mins by LC-MS/MS analysis; format: ADME, cell-based, Canis lupus familiaris, MDCK-II; conditions: dog
# OATP1B1 = assay: Efflux ratio of permeability from basolateral to apical side to apical to basolateral side in MDCK2 cells expressing OATP1B1 (unknown origin) at 1 uM after 30 to 180 mins by LC-MS/MS analysis; format: ADME, cell-based, Canis lupus familiaris, MDCK-II; conditions: dog, MDCK
# Hepatocyte [1] = assay: Cellular uptake in Wistar rat hepatocytes at 5 uM after 2 mins; format: ADME, cell-based
# Liver [2] = assay: Drug uptake in Wistar rat liver at 5 uM after 1 to 30 mins by LC-MS/MS analysis in presence of cyclosporin A; format: ADME, tissue-based; conditions: in vivo
# [3] = Drug uptake in MDCK2 cells expressing OATP1B1/MRP2 (unknown origin) at 2.5 uM after 30 to 180 mins by LC-MS/MS analysis; format: ADME, cell-based, Canis lupus familiaris; conditions: dog, mdck-ii
# [4] = molecular target: T1, Solute carrier organic anion transporter family member 1B3 (Homo sapiens, UniProt Q9NPD5); assay: Cellular uptake in HEK293 cells expressing OATP1B3 (unknown origin) assessed as inhibition of cyclosporin A-mediated drug transport; format: ADME, cell-based
# T1 sequence (Q9NPD5 whole entry): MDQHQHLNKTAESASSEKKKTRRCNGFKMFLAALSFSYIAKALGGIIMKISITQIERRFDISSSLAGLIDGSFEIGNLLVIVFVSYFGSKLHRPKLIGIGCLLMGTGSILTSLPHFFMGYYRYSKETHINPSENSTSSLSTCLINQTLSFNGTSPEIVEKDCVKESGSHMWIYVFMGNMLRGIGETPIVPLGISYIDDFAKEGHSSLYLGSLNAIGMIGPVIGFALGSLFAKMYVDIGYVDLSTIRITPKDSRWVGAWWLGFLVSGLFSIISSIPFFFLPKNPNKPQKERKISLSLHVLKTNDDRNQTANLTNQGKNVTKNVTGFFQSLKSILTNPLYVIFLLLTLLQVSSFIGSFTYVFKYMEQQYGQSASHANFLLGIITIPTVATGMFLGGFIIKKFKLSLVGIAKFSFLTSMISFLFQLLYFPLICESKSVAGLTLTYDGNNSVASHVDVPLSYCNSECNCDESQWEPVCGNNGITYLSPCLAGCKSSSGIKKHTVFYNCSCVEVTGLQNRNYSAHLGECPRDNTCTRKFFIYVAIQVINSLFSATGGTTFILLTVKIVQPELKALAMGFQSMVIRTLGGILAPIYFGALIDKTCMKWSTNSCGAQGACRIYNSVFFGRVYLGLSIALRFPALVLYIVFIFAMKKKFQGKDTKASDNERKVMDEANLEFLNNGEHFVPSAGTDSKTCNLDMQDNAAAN
# Liver [5] = assay: Drug uptake in Wistar rat liver at 5 uM after 1 to 30 mins by LC-MS/MS analysis in presence of rifampicin; format: ADME, tissue-based; conditions: in vivo
# Hepatocyte [6] = assay: Cellular uptake in Wistar rat hepatocytes at 2.5 uM in presence of rifampicin; format: ADME, cell-based
# [7] = molecular target: T1, Solute carrier organic anion transporter family member 1B3; assay: Cellular uptake in HEK293 cells expressing OATP1B3 (unknown origin) assessed as inhibition of (-)-epigallocatechin gallate-mediated drug transport; format: ADME, cell-based
# Hepatocyte [8] = assay: Cellular uptake in Wistar rat hepatocytes at 2.5 uM in presence of Na+; format: ADME, cell-based
# [9] = Drug uptake in Wistar rat liver assessed as hepatic extraction ratio at 2.5 uM after 1 to 60 mins in presence of rifampicin; format: ADME, tissue-based; conditions: with rifampicin, read-out: ERH
# Liver [10] = assay: Drug uptake in Wistar rat liver at 5 uM after 15 mins by LC-MS/MS analysis; format: ADME, tissue-based; conditions: in vivo, 0.25 h
# Hepatocyte [11] = assay: Cellular uptake in Wistar rat hepatocytes at 2.5 uM in presence of digoxin; format: ADME, cell-based
# [12] = Drug uptake in MDCK2 cells at 2.5 uM after 30 to 180 mins by LC-MS/MS analysis; format: ADME, cell-based, Canis lupus familiaris; conditions: dog, mdck-ii
# [13] = Drug uptake in MDCK2 cells expressing OATP1B1 (unknown origin) at 2.5 uM after 30 to 180 mins by LC-MS/MS analysis; format: ADME, cell-based, Canis lupus familiaris; conditions: dog, mdck-ii
# Liver [14] = assay: Drug uptake in Wistar rat liver at 5 uM after 1 to 30 mins by LC-MS/MS analysis in presence of ibuprofen; format: ADME, tissue-based; conditions: in vivo
# [15] = molecular target: T1, Solute carrier organic anion transporter family member 1B3; assay: Cellular uptake in HEK293 cells expressing OATP1B3 (unknown origin) assessed as inhibition of telmisartan-mediated drug transport; format: ADME, cell-based
# Hepatocyte [16] = assay: Cellular uptake in Wistar rat hepatocytes assessed as rate of drug transport per 10^6 cells at 0.2 to 2.5 uM; format: ADME, cell-based
# Hepatocyte [17] = assay: Cellular uptake in Wistar rat hepatocytes at 2.5 uM after 2 mins; format: ADME, cell-based
# [18] = Cellular uptake in Wistar rat hepatocytes at 0.2 to 2.5 uM; format: ADME, cell-based, Hepatocyte
# Hepatocyte [19] = assay: Cellular uptake in Wistar rat hepatocytes at 2.5 uM in presence of PAH; format: ADME, cell-based
# [20] = Drug uptake in Wistar rat liver assessed as hepatic extraction ratio at 2.5 uM after 1 to 60 mins; format: ADME, tissue-based; conditions: read-out: ERH
# Liver [21] = assay: Drug uptake in Wistar rat liver at 2.5 uM after 30 mins; format: ADME, tissue-based; conditions: in vivo, 0.5 h
# Hepatocyte [22] = assay: Cellular uptake in Wistar rat hepatocytes at 2.5 uM in presence of TEA; format: ADME, cell-based
# Liver [23] = assay: Drug uptake in Wistar rat liver assessed as liver uptake index at 0.2 mg/kg, iv in presence of cyclosporin A; format: ADME, organism-based; design: dose 0.2 mg/kg, route intravenous; conditions: in vivo
# OATP1B3 = molecular target: T2, OATP1B3 (Homo sapiens, UniProt Q9NPD5); assay: (§1) Activity at OATP1B3 (unknown origin) expressed in HEK293 cells assessed as compound transport; format: ADME, cell-based; conditions: HEK293 cells expressing OATP1B3
# T2 sequence (Q9NPD5 whole entry): T1 sequence (Q9NPD5 whole entry)
# [24] = molecular target: T1, Solute carrier organic anion transporter family member 1B3; assay: as §1; format: ADME, cell-based; conditions: hek293
# [25] = Drug uptake in Wistar rat liver assessed as hepatic extraction ratio at 2.5 uM after 1 to 60 mins in presence of cyclosporin A; format: ADME, tissue-based; conditions: with cyclosporin A, read-out: ERH
# [26] = Intrinsic clearance in human; format: ADME, organism-based; conditions: in vivo
# [27] = molecular target: T1, Solute carrier organic anion transporter family member 1B3; assay: Cellular uptake in HEK293 cells expressing OATP1B3 (unknown origin) assessed as inhibition of rifampicin-mediated drug transport; format: ADME, cell-based
# HEK293 = assay: Cellular uptake in HEK293 cells at 2.5 uM after 1 min; format: ADME, cell-based; conditions: human, hek293, 1 min
# Liver [28] = assay: Drug uptake in Wistar rat liver at 5 uM after 1 to 30 mins by LC-MS/MS analysis in presence of digoxin; format: ADME, tissue-based; conditions: in vivo
# Hepatocyte [29] = assay: Cellular uptake in Wistar rat hepatocytes at 2.5 uM in presence of ibuprofen; format: ADME, cell-based
# Hepatocyte [30] = assay: Cellular uptake in Wistar rat hepatocytes at 2.5 uM in presence of glycyrrhizic acid; format: ADME, cell-based
# Hepatocyte [31] = assay: Cellular uptake in Wistar rat hepatocytes at 2.5 uM in presence of cyclosporin A; format: ADME, cell-based
# Liver [32] = assay: Drug uptake in Wistar rat liver at 5 uM after 1 to 30 mins by LC-MS/MS analysis in presence of TEA; format: ADME, tissue-based; conditions: in vivo
# Hepatocyte [33] = assay: Cellular uptake in Wistar rat hepatocytes at 2.5 uM in presence of K+; format: ADME, cell-based
# Liver [34] = assay: Drug uptake in Wistar rat liver at 5 uM after 1 to 30 mins by LC-MS/MS analysis in presence of glycyrrhizic acid; format: ADME, tissue-based; conditions: in vivo
# [35] = Fraction unbound in Wistar rat blood; format: ADME, tissue-based
# Liver [36] = assay: Drug uptake in Wistar rat liver at 5 uM after 1 to 30 mins by LC-MS/MS analysis in presence of PAH; format: ADME, tissue-based; conditions: in vivo
# [37] = Clearance in human hepatocytes assessed per 10^6 cells; format: ADME, cell-based, Hepatocyte; conditions: read-out: CLH
# [38] = Plasma clearance in Wistar rat; format: ADME, organism-based
# [39] = Fraction unbound in Wistar rat plasma at 2.5 uM by LC-MS/MS analysis; format: ADME, cell-free
# [40] = Ratio of drug level in blood to plasma in Wistar rat at 2.5 uM after 5 mins by LC-MS/MS analysis; format: ADME
# Liver [41] = assay: Drug uptake in Wistar rat liver assessed as liver uptake index at 0.2 mg/kg, iv; format: ADME, organism-based; design: dose 0.2 mg/kg, route intravenous; conditions: in vivo
# Liver [42] = assay: Drug uptake in Wistar rat liver assessed as liver uptake index at 0.2 mg/kg, iv in presence of rifampicin; format: ADME, organism-based; design: dose 0.2 mg/kg, route intravenous; conditions: in vivo
smiles,measurement,setting,value
C[C@]12CC[C@@H]3c4ccc(OS(=O)(=O)O)cc4CC[C@H]3[C@@H]1CCC2=O [ESTRONE SULFURIC ACID],efflux ratio at 1 µM,OATP1B1/MRP2,4.2
same,efflux ratio at 1 µM,OATP1B1,2.8
C[C@H]1O[C@@H](O[C@H]2[C@@H](O)C[C@H](O[C@H]3[C@@H](O)C[C@H](O[C@H]4CC[C@@]5(C)[C@H](CC[C@@H]6[C@@H]5C[C@@H](O)[C@]5(C)[C@@H](C7=CC(=O)OC7)CC[C@]65O)C4)O[C@@H]3C)O[C@@H]2C)C[C@H](O)[C@@H]1O [DIGOXIN],Drug uptake,Hepatocyte [1],Active
C[C@@H]1CC[C@@]2(OC1)O[C@H]1C[C@H]3[C@@H]4CC=C5C[C@@H](O[C@@H]6O[C@H](CO)[C@@H](O[C@@H]7O[C@@H](C)[C@H](O)[C@@H](O)[C@H]7O)[C@H](O)[C@H]6O[C@@H]6O[C@@H](C)[C@H](O)[C@@H](O)[C@H]6O)CC[C@]5(C)[C@H]4CC[C@]3(C)[C@H]1[C@@H]2C [DIOSCIN],Drug uptake,Liver [2],Not Active
same,Drug uptake,[3],Active
same,Ki,[4],1430 nM
same,Drug uptake,Liver [5],Not Active
same,Drug uptake,Hepatocyte [6],Not Active
same,Ki,[7],8290 nM
same,Drug uptake,Hepatocyte [8],Active
same,hepatic extraction ratio at 2.5 µM,[9],0.082
same,Drug uptake,Liver [10],Active
same,Drug uptake,Hepatocyte [11],Not Active
same,Drug uptake,[12],Active
same,Drug uptake,[13],Active
same,Drug uptake,Liver [14],Not Active
same,Ki,[15],1030 nM
same,Vmax,Hepatocyte [16],588 pmol/min
same,Drug uptake,Hepatocyte [17],Active
same,Km at up to 2.5 µM,[18],3.75 µM
same,Drug uptake,Hepatocyte [19],Active
same,hepatic extraction ratio at 2.5 µM,[20],0.15
same,Drug uptake,Liver [21],Active
same,Drug uptake,Hepatocyte [22],Active
same,LUI,Liver [23],6.9%
same,Km,OATP1B3,2.08 µM
same,Vmax,[24],730 pmol/min/mg
same,hepatic extraction ratio at 2.5 µM,[25],0.074
same,CLint scaled,[26],168 mL/min/kg
same,Ki,[27],4550 nM
same,Drug uptake,HEK293,Active
same,Drug uptake,Liver [28],Not Active
same,Drug uptake,Hepatocyte [29],Not Active
same,Drug uptake,Hepatocyte [30],Not Active
same,Drug uptake,Hepatocyte [31],Not Active
same,Drug uptake,Liver [32],Active
same,Drug uptake,Hepatocyte [33],Active
same,Drug uptake,Liver [34],Not Active
same,fraction unbound,[35],0.079
same,Drug uptake,Liver [36],Active
same,hepatocyte CLint,[37],35 µL/min/1e6 cells
same,clearance,[38],3.86 mL/min/kg
same,fraction unbound at 2.5 µM,[39],0.061
same,"blood plasma ratio at 5 min, 2.5 µM",[40],0.771
same,LUI,Liver [41],11.9%
same,LUI,Liver [42],5.5%
